Measured values reported in US20250064941A1, “SIGLEC LIGANDS, CONJUGATES, AND METHODS OF USE THEREOF” (Osprey Biopharmaceuticals, Inc., priority 2023, published 2025).
pKd: −log10 of the molar value.

Columns and labels:
[1] = target: T1, human Siglec-2/CD22 protein (Homo sapiens, UniProt P20273); assay: SPR binding affinity to human CD22; details: steady-state analysis
T1 construct: purchased Acro Biosystems SI2-H82E3
T1 sequence (P20273 20-847): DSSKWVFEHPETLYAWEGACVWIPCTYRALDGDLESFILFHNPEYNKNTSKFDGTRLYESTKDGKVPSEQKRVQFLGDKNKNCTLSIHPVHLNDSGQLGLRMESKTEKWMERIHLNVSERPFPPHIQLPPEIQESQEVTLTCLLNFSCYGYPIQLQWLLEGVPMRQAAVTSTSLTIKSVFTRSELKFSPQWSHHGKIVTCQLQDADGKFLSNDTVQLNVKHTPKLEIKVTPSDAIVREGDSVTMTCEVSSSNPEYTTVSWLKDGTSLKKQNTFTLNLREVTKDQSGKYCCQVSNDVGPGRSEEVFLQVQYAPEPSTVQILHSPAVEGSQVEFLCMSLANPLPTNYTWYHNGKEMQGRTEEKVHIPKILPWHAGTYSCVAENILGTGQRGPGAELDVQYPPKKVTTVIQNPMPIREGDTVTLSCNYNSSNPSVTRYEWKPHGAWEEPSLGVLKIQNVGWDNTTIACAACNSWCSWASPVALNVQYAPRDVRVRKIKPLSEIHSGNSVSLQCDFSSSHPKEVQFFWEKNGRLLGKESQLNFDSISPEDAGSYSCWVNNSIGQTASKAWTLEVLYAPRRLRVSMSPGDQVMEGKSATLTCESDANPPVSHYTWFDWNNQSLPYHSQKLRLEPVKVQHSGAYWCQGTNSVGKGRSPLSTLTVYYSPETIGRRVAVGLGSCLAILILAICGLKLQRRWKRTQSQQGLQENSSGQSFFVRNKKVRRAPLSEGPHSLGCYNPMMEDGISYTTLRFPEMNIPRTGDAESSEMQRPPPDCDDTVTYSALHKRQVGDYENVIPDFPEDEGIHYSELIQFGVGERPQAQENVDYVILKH
Outline: (§1)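 Biotinylated CD22 desialylated with SialoExo (4 h, 37° C) before capture on streptavidin chip. Running buffer 10 mM HEPES, 150 mM NaCl, 0.05% Tween-20, pH 7.5, 1% DMSO, with DMSO solvent correction; 120 s dissociation. Compound affinities from steady-state analysis.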

cynomolgus Siglec-2/CD22 = cynomolgus Siglec-2/CD22 (Macaca fascicularis, UniProt A0A2K5WCZ6); assay: biochemical; format: binding; details: SPR, steady-state analysis; read-out: Affinity cyno CD22
cynomolgus Siglec-2/CD22, sequence (A0A2K5WCZ6 entry or part of it): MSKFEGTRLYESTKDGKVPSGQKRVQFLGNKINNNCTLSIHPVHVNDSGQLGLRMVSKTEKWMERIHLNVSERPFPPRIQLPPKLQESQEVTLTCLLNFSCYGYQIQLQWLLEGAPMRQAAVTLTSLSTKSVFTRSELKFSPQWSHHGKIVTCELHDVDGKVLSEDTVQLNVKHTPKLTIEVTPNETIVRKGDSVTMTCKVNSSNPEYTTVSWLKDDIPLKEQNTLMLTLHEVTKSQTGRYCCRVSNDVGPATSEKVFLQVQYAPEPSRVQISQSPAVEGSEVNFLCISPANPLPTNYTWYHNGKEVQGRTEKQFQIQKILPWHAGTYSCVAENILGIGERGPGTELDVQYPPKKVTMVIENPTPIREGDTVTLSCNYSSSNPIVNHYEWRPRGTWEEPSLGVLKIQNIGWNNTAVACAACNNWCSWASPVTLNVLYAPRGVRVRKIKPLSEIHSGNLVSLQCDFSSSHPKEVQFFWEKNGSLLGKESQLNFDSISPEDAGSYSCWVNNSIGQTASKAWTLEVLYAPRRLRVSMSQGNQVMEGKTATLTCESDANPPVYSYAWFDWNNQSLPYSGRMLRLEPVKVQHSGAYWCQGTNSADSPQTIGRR
Outline: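 Compound binding measured by steady-state SPR analysis, 120 s dissociation, in HEPES-NaCl-Tween buffer pH 7.5 containing 1% DMSO, DMSO solvent-corrected. Surface: cyno CD22, sialic acids first stripped by SialoExo for 4 h at 37° C., then amine-coupled onto CM5.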

[2] = target: T2, mouse Siglec-2-Fc-Avi (CD22) (Mus musculus, UniProt P35329); assay: SPR binding affinity to mouse CD22; details: steady-state analysis
T2 construct: made in house
T2 sequence (P35329 22-708 limits assumed): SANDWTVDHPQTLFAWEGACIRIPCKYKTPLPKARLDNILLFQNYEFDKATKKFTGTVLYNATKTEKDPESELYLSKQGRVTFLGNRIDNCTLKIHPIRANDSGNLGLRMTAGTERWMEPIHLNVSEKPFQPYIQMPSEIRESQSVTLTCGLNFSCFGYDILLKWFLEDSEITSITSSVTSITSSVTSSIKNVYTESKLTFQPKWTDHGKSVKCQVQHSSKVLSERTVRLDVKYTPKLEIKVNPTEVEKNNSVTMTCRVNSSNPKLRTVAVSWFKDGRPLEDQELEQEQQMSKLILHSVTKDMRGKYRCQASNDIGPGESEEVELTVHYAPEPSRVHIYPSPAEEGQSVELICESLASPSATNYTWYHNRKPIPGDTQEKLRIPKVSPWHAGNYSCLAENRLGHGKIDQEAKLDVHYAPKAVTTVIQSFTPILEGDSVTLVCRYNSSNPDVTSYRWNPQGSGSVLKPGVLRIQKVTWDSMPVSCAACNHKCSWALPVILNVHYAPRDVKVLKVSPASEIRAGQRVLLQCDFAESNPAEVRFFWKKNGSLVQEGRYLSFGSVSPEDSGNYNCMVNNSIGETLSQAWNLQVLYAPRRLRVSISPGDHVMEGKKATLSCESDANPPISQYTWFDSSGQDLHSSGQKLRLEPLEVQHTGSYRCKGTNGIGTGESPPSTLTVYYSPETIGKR
Outline: as §1

| Compound | pKd [1] | pKd (cynomolgus Siglec-2/CD22) | pKd [2] |
| --- | --- | --- | --- |
| C#CCOCCOCCO[C@]1(C(=O)O)C[C@H](O)[C@@H](NC(=O)CO)[C@H]([C@H](O)[C@H](O)CNC(=O)Cc2ccccc2O)O1 [Compound 151, (2R,4S,5R,6R)-6-((1R,2R)-1,2-dihydroxy-3-(2-(2-hydroxyphenyl)acetamido)propyl)-4-hydroxy-5-(2-hydroxyacetamido)-2-(2-(2-(prop-2-yn-1-yloxy)ethoxy)ethoxy)tetrahydro-2H-pyran-2-carboxylic acid] | 5.00 to 6.00 | < 5.00 | 5.00 to 6.00 |
| C#CCCOc1ccc(CO[C@]2(C(=O)O)C[C@H](O)[C@@H](NC(=O)CO)[C@H]([C@H](O)[C@H](O)CNC(=O)C3(c4ccc(C(F)(F)F)cc4)CCOCC3)O2)cc1 [Compound 170, (2R,4S,5R,6R)-2-((4-(but-3-yn-1-yloxy)benzyl)oxy)-6-((1R,2R)-1,2-dihydroxy-3-(4-(4-(trifluoromethyl)phenyl)tetrahydro-2H-pyran-4-carboxamido)propyl)-4-hydroxy-5-(2-hydroxyacetamido)tetrahydro-2H-pyran-2-carboxylic acid] | 5.00 to 6.00 | 5.00 to 6.00 | 5.00 to 6.00 |
| C#CCOCCOCCO[C@]1(C(=O)O)C[C@H](O)[C@@H](NC(=O)CO)[C@H]([C@H](O)[C@H](O)CNC(=O)c2ccc(-c3ccc(O)cc3)cc2)O1 [Compound 19, (2R,4S,5R,6R)-6-((1R,2R)-1,2-dihydroxy-3-(4′-hydroxy-[1,1′-biphenyl]-4-carboxamido)propyl)-4-hydroxy-5-(2-hydroxyacetamido)-2-(2-(2-(prop-2-yn-1-yloxy)ethoxy)ethoxy)tetrahydro-2H-pyran-2-carboxylic acid] | > 6.00 | 5.00 to 6.00 | 5.00 to 6.00 |
| C#CCOCCOCCNc1c(NCCCCCCO[C@]2(C(=O)O)C[C@H](O)[C@@H](NC(=O)CO)[C@H]([C@H](O)[C@H](O)CNC(=O)c3cccc(C(F)F)c3)O2)c(=O)c1=O [Compound 233, (2R,4S,5R,6R)-6-((1R,2R)-3-(3-(difluoromethyl)benzamido)-1,2-dihydroxypropyl)-2-((6-((3,4-dioxo-2-((2-(2-(prop-2-yn-1-yloxy)ethoxy)ethyl)amino)cyclobut-1-en-1-yl)amino)hexyl)oxy)-4-hydroxy-5-(2-hydroxyacetamido)tetrahydro-2H-pyran-2-carboxylic acid] | 5.00 to 6.00 | 5.00 to 6.00 | 5.00 to 6.00 |

The next lines start with the values.

| pKd [1] | pKd (cynomolgus Siglec-2/CD22) | pKd [2] | Compound |
| --- | --- | --- | --- |
| > 6.00 | > 6.00 | > 6.00 | O=C(Cc1ccc(Cl)cc1)NC[C@@H](O)[C@@H](O)[C@@H]1O[C@@](SCc2ccc(C(=O)O)cc2)(C(=O)O)C[C@H](O)[C@H]1NC(=O)CO [Compound 195, (2S,4S,5R,6R)-2-((4-carboxybenzyl)thio)-6-((1R,2R)-3-(2-(4-chlorophenyl)acetamido)-1,2-dihydroxypropyl)-4-hydroxy-5-(2-hydroxyacetamido)tetrahydro-2H-pyran-2-carboxylic acid] |
| < 5.00 | < 5.00 | < 5.00 | NCC(O)CO[C@]1(C(=O)O)C[C@H](O)[C@@H](NC(=O)CO)[C@H]([C@H](O)[C@H](O)CNC(=O)Cc2ccc(Cl)cc2)O1 (stereo partly drawn) [Compound 104, (2R,4S,5R,6R)-2-(3-amino-2-hydroxypropoxy)-6-((1R,2R)-3-(2-(4-chlorophenyl)acetamido)-1,2-dihydroxypropyl)-4-hydroxy-5-(2-hydroxyacetamido)tetrahydro-2H-pyran-2-carboxylic acid] |
| > 6.00 | > 6.00 | 5.00 to 6.00 | O=C(Cc1ccc(Cl)cc1)NC[C@@H](O)[C@@H](O)[C@@H]1O[C@@](OCC2CCOCC2)(C(=O)O)C[C@H](O)[C@H]1NC(=O)CO [Compound 106, (2R,4S,5R,6R)-6-((1R,2R)-3-(2-(4-chlorophenyl)acetamido)-1,2-dihydroxypropyl)-4-hydroxy-5-(2-hydroxyacetamido)-2-((tetrahydro-2H-pyran-4-yl)methoxy)tetrahydro-2H-pyran-2-carboxylic acid] |
